Assay results from US9975876B2, “2-pyridyloxy-3-ester-4-ether orexin receptor antagonists” (MERCK SHARP & DOHME CORP., priority 2013, dated 2018).

How the values were obtained:
[1] = molecular target: hOX1R (Homo sapiens, UniProt O43613); test: FLIPR Ca2+ flux assay, orexin-1 receptor antagonism; assay type: cell-based; details: CHO cells; agonist 70 pM Ala-6,12 human orexin-A
[2] = molecular target: human orexin-2 receptor (Homo sapiens (Human), UniProt O43614); test: FLIPR Ca2+ flux assay, orexin-2 receptor antagonism; assay type: cell-based; details: CHO cells; agonist 70 pM Ala-6,12 human orexin-A; read-out: hOX2R FLIPR IC50
Sequence of human orexin-2 receptor (O43614 whole entry): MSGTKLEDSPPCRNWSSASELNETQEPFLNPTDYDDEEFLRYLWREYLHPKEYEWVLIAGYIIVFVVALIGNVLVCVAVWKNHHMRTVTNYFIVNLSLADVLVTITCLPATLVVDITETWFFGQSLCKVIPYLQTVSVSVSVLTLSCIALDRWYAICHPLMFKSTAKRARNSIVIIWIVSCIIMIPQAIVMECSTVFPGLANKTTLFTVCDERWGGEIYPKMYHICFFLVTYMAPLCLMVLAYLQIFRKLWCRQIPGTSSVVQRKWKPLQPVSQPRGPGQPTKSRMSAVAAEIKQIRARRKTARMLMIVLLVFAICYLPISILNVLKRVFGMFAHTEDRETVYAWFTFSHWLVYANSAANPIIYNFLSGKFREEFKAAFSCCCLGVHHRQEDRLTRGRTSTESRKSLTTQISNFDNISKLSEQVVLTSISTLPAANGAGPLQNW
Experimental: In a typical experiment the OX1 and OX2 receptor antagonistic activity of the compounds of the present invention was determined in accordance with the following experimental method. For intracellular calcium measurements, Chinese hamster ovary (CHO) cells expressing the rat orexin-1 receptor or the human orexin-2 receptor, are grown in Iscove's modified DMEM containing 2 mM L-glutamine, […], 1% hypoxanthine-thymidine supplement, 100 U/ml penicillin, 100 μg/ml streptomycin and 10% heat-inactivated fetal calf serum (FCS). The cells are seeded at 20,000 cells/well into Becton-Dickinson black 384-well clear bottom sterile plates coated with poly-D-lysine. All reagents were from GIBCO-Invitrogen Corp. The seeded plates are incubated overnight at 37° C. and 5% CO2. Ala-6,12 human orexin-A as the agonist is prepared as a 1 mM stock solution in 1% bovine serum albumin (BSA) and diluted in assay buffer (HBSS containing 20 mM HEPES, 0.1% BSA and 2.5 mM probenecid, pH7.4) for use in the assay at a final concentration of 70 pM. Test compounds are prepared as 10 mM stock solution in DMSO, then diluted in 384-well plates, first in DMSO, then assay buffer. On the day of the assay, cells are washed 3 times with 100 μl assay buffer and then incubated for 60 min (37° C., 5% CO2) in 60 μl assay buffer containing 1 μM Fluo-4AM ester, 0.02% pluronic acid, and 1% BSA. The dye loading solution is then aspirated and cells are washed 3 times with 100 μl assay buffer. 30 μl of that same buffer is left in each well. Within the Fluorescent Imaging Plate Reader (FLIPR, Molecular Devices), test compounds are added to the plate in a volume of 25 μl, incubated for 5 min and finally 25 μl of agonist is added. Fluorescence is measured for each well at 1 second intervals for 5 minutes and the height of each fluorescence peak is compared to the height of the fluorescence peak induced by 70 pM Ala-6,12 orexin-A with buffer in place of antagonist. […] The intrinsic orexin receptor antagonist activity of a compound which may be used in the present invention may be determined by these assays.

SMILES | IC50 [1] | IC50 [2]
COC(=O)c1c(OC)cccc1O[C@@H]1CC[C@@H](C)N(C(=O)c2ccccc2-n2nccn2)C1 [Example 31, Methyl 2-methoxy-6-{[(3R,6R)-6-methyl-1-{[2-(2H-1,2,3-triazol-2-yl)phenyl]carbonyl}piperidin-3-yl]oxy}benzoate] | > 10 µM | 0.025 µM
COC(=O)c1c(OC)cccc1O[C@@H]1CC[C@@H](C)N(C(=O)c2ccsc2-n2nccn2)C1 [Example 32, methyl 2-methoxy-6-{[(3R,6R)-6-methyl-1-{[2-(2H-1,2,3-triazol-2-yl)thiophen-3-yl]carbonyl}piperidin-3-yl]oxy}benzoate] | > 10 µM | 0.061 µM
COC(=O)c1c(OC)cccc1O[C@@H]1CC[C@@H](C)N(C(=O)c2ccccc2-n2ncnn2)C1 [Example 33, methyl 2-methoxy-6-{[(3R,6R)-6-methyl-1-{[2-(2H-tetrazol-2-yl)phenyl]carbonyl}piperidin-3-yl]oxy}bcnzoate] | > 10 µM | 0.202 µM
COC(=O)c1c(OC)cccc1O[C@@H]1CC[C@@H](C)N(C(=O)c2ccsc2-c2ncccn2)C1 [Example 34, methyl 2-methoxy-6-({(3R,6R)-6-methyl-1-[(2-pyrimidin-2-ylthiophen-3-yl)carbonyl]piperidin-3-yl}oxy)benzoate] | > 10 µM | 0.042 µM
COC(=O)c1c(OC)cccc1O[C@@H]1CC[C@@H](C)N(C(=O)c2ccccc2-c2ncccn2)C1 [Example 35, methyl 2-methoxy-6-({(3R,6R)-6-methyl-1-[(2-pyrimidin-2-ylphenyl)carbonyl]piperidin-3-yl}oxy)benzoate] | > 10 µM | 0.035 µM
